Measured values: US20230097085A1, “[6R]-MTHF IN 5-FU BASED CHEMOTHERAPY OF RIGHT-SIDED COLORECTAL CANCER” (Isofol Medical AB, priority 2021, published 2023)

System: solid colorectal cancer tumors (metastatic colorectal cancer)
Assay: Clinical study ISO-CC-005 (safety extension cohorts #18/#19 and Follow-up study): tumour response by CT/MRI per RECIST 1.1
Format: in vivo, human
Description: As used herein, the term ORR shall refer to the Objective Response Rate, ie. the proportion of patients with reduction in tumor burden of a predefined amount. […] (Note: the appearance of one or more new lesions is also considered progression). […] 2019. The completion of the study was announced in January 2020. In total, 105 patients were included in the study. Applicant completed the dose definition part of ISO-CC-005 in March 2018, which evaluated the safety and efficacy of arfolitixorin in patients with mCRC. Shortly after, applicant started two additional treatment groups in 2018 to generate more safety and efficacy data, i.e. the safety extension Cohort #18 (Treatment Arm #4) and Cohort #19 (Treatment Arm #6). The aim was to evaluate as many patients as possible from the additional treatment groups after a treatment period of 16 weeks+. On 30 Sep. 2020, applicant announced response assessment data from the two safety extension cohorts (31 patients) treated for 16 weeks or longer (press release: 55% Overall Response Rate on the safety extension cohorts of the ISO-CC-005 Phase Ulla study BioSpace). […] Out of the 31 patients, 17 were treated with an ARFOX regimen. Clinical Study ISO-CC-005 was an exploratory, […] multiple-centre study to be carried out in Stadium IV CRC patients. […] In the Main Study, patients received study treatment with arfolitixorin during eight (8) weeks. Patients eligible for the Follow-up study could participate until reaching progress, but no longer than 18 months. Enrolled patients, stadium IV CRC patients, were aware of the relatively poor prognosis of their disease. Those patients who could continue benefitting from treatment with a […] effective therapy, were offered the possibility to continue study treatment by participating in the Follow-up Study. In the Follow-up Study patients continued to receive the same treatment as assigned during the Main Study period. However, the Investigator could complete the allocated treatment with other therapeutic agents of choice in alignment with standard of care in order to adapt treatment to the patient's specific needs and, in this way, provide optimal care. Response was measured in short- and long-term assessments. During the Main Study phase, only short-term assessments of tumour response were explored by means of objective response rate (ORR) and early tumour shrinkage (ETS). These assessments were to be used as indicators of prognostic factor in ascertaining earlier non responders and to explore the correlation to other factors such as folate levels, tumour biomarkers, or expression levels of certain key genes. […]

Question: For `Nc1nc2c(c(=O)[nH]1)N1CN(c3ccc(C(=O)N[C@@H](CCC(=O)O)C(=O)O)cc3)C[C@H]1CN2` [arfolitixorin, [6R]-5,10-methylenetetrahydrofolate], which “best overall response rate (ORR)” value (31 patients of the two safety extension cohorts treated 16 weeks or longer, 120 mg/m2 arfolitixorin + 5-FU with irinotecan or oxaliplatin (ARFIRI/ARFOX)) is on record?
Answer: Its value is 55%.

Question: What about the “progression of solid tumors between 8 and 16 weeks after initiating treatment” value ([6R]-MTHF and 5-FU, treatment period of at least 8 weeks, Phase I/IIa study ISO-CC-005) of the same compound?
Answer: The value was “No statistically significant progression”.

Question: And the “best ORR in patients diagnosed with RCRC” value (right-sided CRC patients (13) of the 31-patient group, after 16 weeks and beyond, 120 mg/m2 arfolitixorin + 5-FU + irinotecan or oxaliplatin)?
Answer: The value was 46%.

Question: And the “best ORRs (objective response rates) that can be achieved” value (right-sided CRC patients incl. BRAF/KRAS mutation-positive, protocol over at least 16 weeks with multiple rapid boluses)?
Answer: Its value is > 50%.
